{"source": "patent US10988456B2", "about": "“O-aminoheteroaryl alkynyl-containing compound, preparation method therefor, and use thereof” (SHANGHAI INSTITUTE OF MATERIA MEDICA, CHINESE ACADEMY OF …, priority 2017, dated 2021)", "key": {"RET": {"biological_target": "RET (Homo sapiens, UniProt P07949)", "sequence (P07949 29-1114)": "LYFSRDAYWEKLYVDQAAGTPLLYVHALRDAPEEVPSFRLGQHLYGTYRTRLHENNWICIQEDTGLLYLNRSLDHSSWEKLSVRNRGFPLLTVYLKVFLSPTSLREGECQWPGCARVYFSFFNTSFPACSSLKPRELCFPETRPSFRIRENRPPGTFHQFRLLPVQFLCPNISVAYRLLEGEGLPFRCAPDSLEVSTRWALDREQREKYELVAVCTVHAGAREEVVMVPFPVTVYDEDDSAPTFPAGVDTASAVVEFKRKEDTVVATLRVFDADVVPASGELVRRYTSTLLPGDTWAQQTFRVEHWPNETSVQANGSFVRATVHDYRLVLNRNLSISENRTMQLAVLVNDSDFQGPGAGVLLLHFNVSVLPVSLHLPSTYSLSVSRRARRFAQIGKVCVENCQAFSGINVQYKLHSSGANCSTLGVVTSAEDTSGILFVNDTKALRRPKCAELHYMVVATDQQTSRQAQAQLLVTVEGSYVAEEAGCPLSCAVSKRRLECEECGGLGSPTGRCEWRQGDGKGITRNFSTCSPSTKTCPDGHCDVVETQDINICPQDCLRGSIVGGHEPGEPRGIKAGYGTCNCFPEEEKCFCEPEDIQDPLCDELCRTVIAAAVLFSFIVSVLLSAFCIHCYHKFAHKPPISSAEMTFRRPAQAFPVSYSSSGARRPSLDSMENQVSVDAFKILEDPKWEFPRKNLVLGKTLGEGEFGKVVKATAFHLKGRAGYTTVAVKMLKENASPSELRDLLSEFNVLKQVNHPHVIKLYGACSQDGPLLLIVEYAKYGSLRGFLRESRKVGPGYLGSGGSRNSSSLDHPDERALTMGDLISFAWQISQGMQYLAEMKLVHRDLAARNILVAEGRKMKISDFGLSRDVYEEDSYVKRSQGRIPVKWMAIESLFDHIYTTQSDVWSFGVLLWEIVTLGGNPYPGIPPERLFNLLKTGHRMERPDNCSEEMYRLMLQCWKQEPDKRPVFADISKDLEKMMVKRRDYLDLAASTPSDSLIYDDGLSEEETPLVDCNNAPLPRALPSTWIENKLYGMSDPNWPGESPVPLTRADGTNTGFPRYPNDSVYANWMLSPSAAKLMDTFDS", "assay": "Inhibition of receptor tyrosine kinase activity at molecular level (ELISA, Poly(Glu,Tyr)4:1 substrate phosphorylation)", "type": "biochemical", "details": "for 10 nM inhibition ratio RET: 10 nM compound, average of two independent experiments", "how_it_was_run": "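Poly(Glu,Tyr)4:1-coated plates (20 μg/mL) were incubated with recombinant kinase, compound and 5 μM ATP (final) in HEPES pH 7.4 buffer with MgCl2/MnCl2/Na3VO4/DTT for 1 h at 37 °C. Phosphotyrosine was detected with PY99 and HRP anti-mouse IgG plus OPD at 490 nm. IC50 came from four-parameter regression.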"}, "KDR": {"biological_target": "KDR (Homo sapiens, UniProt P35968)", "sequence (P35968 20-1356)": "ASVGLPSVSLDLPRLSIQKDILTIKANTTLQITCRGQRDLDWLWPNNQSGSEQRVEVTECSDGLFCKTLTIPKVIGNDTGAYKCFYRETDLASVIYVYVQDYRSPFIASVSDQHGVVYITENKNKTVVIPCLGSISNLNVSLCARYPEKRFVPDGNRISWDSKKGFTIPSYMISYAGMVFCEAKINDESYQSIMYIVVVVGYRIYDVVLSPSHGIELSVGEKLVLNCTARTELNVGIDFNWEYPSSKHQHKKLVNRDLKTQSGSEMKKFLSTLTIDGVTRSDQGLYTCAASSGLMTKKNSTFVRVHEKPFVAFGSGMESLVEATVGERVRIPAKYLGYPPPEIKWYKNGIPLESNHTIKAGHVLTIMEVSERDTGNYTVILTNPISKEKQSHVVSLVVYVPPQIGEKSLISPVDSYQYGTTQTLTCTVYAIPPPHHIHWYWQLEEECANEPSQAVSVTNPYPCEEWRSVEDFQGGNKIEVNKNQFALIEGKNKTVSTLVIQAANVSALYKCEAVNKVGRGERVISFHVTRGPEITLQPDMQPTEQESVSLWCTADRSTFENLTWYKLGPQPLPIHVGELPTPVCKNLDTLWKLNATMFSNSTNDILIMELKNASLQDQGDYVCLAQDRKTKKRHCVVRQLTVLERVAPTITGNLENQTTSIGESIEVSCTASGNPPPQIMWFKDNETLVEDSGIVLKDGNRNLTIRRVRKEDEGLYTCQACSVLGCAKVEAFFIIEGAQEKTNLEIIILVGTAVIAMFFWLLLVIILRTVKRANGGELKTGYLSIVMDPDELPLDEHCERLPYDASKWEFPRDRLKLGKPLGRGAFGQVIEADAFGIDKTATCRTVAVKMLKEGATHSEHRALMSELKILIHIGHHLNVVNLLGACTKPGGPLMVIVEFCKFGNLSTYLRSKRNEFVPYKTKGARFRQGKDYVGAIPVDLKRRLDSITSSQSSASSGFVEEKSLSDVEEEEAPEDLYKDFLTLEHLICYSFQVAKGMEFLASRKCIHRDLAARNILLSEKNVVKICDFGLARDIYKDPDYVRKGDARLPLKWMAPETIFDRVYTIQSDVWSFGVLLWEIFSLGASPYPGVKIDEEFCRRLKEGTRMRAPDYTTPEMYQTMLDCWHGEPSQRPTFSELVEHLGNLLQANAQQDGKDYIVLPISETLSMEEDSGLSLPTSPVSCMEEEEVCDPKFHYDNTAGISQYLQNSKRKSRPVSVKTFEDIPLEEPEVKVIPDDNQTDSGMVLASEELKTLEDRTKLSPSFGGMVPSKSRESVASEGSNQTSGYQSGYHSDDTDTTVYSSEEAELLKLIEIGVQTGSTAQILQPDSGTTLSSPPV", "assay": "Inhibition of receptor tyrosine kinase activity at molecular level (ELISA, Poly(Glu,Tyr)4:1 substrate phosphorylation)", "type": "biochemical", "details": "10 nM compound; average of two independent experiments"}, "FGFR1": {"biological_target": "FGFR1 (Homo sapiens, UniProt P11362)", "sequence (P11362 22-822)": "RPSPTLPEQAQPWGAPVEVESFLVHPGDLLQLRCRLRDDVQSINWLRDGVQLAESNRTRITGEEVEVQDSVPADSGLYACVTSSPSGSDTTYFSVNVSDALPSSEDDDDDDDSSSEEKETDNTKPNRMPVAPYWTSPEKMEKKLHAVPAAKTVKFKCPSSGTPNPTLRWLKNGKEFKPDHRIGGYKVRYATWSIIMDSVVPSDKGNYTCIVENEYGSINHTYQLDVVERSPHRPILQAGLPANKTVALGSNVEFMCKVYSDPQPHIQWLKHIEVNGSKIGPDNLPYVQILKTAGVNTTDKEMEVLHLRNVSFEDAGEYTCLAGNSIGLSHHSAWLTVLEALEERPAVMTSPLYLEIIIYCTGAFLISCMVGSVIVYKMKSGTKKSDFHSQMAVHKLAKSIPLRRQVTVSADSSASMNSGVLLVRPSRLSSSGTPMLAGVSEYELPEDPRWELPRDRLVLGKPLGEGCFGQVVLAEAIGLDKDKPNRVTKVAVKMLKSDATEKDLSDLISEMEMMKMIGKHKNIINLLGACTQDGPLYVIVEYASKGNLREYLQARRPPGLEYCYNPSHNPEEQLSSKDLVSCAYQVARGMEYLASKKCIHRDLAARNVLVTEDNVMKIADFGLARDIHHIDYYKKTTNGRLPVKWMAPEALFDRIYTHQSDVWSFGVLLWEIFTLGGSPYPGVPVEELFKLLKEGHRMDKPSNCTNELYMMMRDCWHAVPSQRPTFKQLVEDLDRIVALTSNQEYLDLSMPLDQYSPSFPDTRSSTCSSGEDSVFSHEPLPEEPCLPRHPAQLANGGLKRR", "assay": "Inhibition of receptor tyrosine kinase activity at molecular level (ELISA, Poly(Glu,Tyr)4:1 substrate phosphorylation)", "type": "biochemical", "details": "10 nM compound; average of two independent experiments"}, "Ret (V804M)": {"biological_target": "T1, Ret (V804M) (Homo sapiens, UniProt P07949, V804M)", "T1 construct": "purchased", "T1 sequence (P07949 29-1114 V804M)": "as the sequence (P07949 29-1114) above, with V776M counted along it", "assay": "Inhibition of RET-related mutant enzyme activity (ELISA)", "type": "biochemical", "details": "measured twice, Mean ± SD", "method": "Enzyme reaction substrate Poly(Glu, Tyr)4:1 was diluted with potassium-free PBS (10 mM sodium phosphate buffer, 150 mM NaCl, pH 7.2-7.4) to 20 μg/mL. The enzyme label plate was coated with 125 μL/well. The reaction was conducted under 37° C. for 12-16 hours. After the liquid was removed from the wells, the plate was washed three times with 200 μL/well of T-PBS (PBS containing 0.1% Tween-20), each for 5 minutes. The enzyme plate was dried in 37° C. dryer for 1-2 hours.\n50 μL ATP solution diluted with buffer (50 mM HEPES pH 7.4, 50 mM MgCl2, 0.5 mM MnCl2, 0.2 mM Na3VO4, 1 mM DTT) to a final concentration of 5 μM was added into each well. The compound was diluted with DMSO to a suitable concentration (1 μL/well) or the well contained the corresponding concentration of DMSO (negative control well) Then various kinase recombinant proteins diluted with 49 μL of reaction buffer was added to initiate the reaction. Each experiment required duplicate enzyme-free control well. The reaction was carried out for 1 hour on a 37° C. Shaker (100 rpm). […] The reaction was quenched with 2M H2SO4 (50 μL/well), and read at 490 nm using a tunable microplate reader SPECTRA MAX 190.\nThe inhibition ratio of the sample was determined by the following formula: […]\nThe IC50 values were obtained via four-parameter regression analysis using the software supplied with the microplate reader. […]"}, "[1]": {"test_system": "RET signaling pathway in TT and BaF3/CCDC6-RET cells", "assay": "Western blotting of RET signaling pathway activation in cells", "type": "cell-based", "details": "compounds 2 hours; P-RET, P-AKT, P-ErK", "method": "Detecting the Effect of Compounds on the Activation of RET Signaling Pathway in TT and BaF3/CCDC6-RET Cells by Western Blotting\nThe cells were seeded into a 12-well plate (250,000/well). After incubation for 18-24 hours, the compounds were added to react for 2 hours, and then the cells were collected and firstly washed once with cold PBS (containing 1 mmol sodium vanadate); then 1×SDS gel loading buffer (50 mmol Tris-HCl (pH 6.8), 100 mmol DTT, 2% SDS, 10% glycerol, 1 mmol sodium vanadate, 0.1% bromophenol blue) was added to lyse cells. The cell lysate was heated in a boiling water bath for 10 minutes, and then centrifuged at 12,000 rpm for 10 minutes at 4° C.\nThe supernatant was taken for SDS-PAGE electrophoresis (Mini-PROTEAN 3 Cell, Bio-Rad, Hercules, Calif., USA). After electrophoresis, the proteins were transferred to a nitrocellulose membrane using a semi-dry electrotransfer system (Amersham Life Sciences, Arlington Heights, Ill., USA). The nitrocellulose membrane was placed in a blocking solution (5% skim milk powder diluted in TBS containing 1 mmol sodium vanadate) for 2 hours at room temperature, and then the membrane was placed and reacted with a primary antibody at 4° C. overnight. […] The membrane was placed in a secondary antibody solution and reacted for 1-2 hours at room temperature. After the membrane was washed three times as above, the membrane was stained using ECL (Picece, Rockford, Ill.) reagent was used for staining and then developed."}, "[2]": {"test_system": "human gastric cancer SNU-16 xenografts", "assay": "Growth of subcutaneous xenografts of human gastric cancer SNU-16 in nude mice (comparative compounds study)", "details": "for Relative tumor volume RTV (mean ± SD): SNU-16, 30 mg/kg orally once a day; for Weight (g, mean ± SD): SNU-16 tumor-bearing mice, 30 mg/kg orally once a day"}, "[3]": {"assay": "Pharmacokinetic experiment in rat (IV and PO, plasma LC-MS/MS)", "method": "Ponatinib (AP24534) was administered intravenously (IV) and orally (PO) to SD rats. Blood samples were taken at different time points. LC-MS/MS was used to determine the concentration of compound in the plasma of rats after administration of the test compound, and the relevant pharmacokinetic parameters were calculated to examine oral bioavailability and pharmacokinetic properties of the compound in rats.\nCompound HuFGFR267 was administered intravenously and orally to SD rats. Blood samples were taken at different time points. LC-MS/MS was used to determine the concentration of compound in the plasma of rats after administration of the test compound, and the relevant pharmacokinetic parameters were calculated to examine oral bioavailability and pharmacokinetic properties of the compound in rats."}}, "data": [{"smiles": "CN1CCN(Cc2ccc(NC(=O)c3cccc(C#Cc4cccnc4N)c3)cc2C(F)(F)F)CC1", "note": "[Example 6]", "values": [{"measurement": "10 nM inhibition ratio RET", "setting": "RET", "result": 57.7}, {"measurement": "IC50", "setting": "RET; measured twice, Mean ± SD", "result": "6 ± 0.4", "unit": "nM"}, {"measurement": "10 nM inhibition ratio KDR", "setting": "KDR", "result": 35.2}, {"measurement": "10 nM inhibition ratio FGFR1", "setting": "FGFR1", "result": 74.7}, {"measurement": "IC50", "setting": "Ret (V804M)", "result": "17.9 ± 5.4", "unit": "nM"}, {"measurement": "inhibition of RET phosphorylation and downstream signaling pathway (Western blot, FIG. 1)", "setting": "[1]", "result": "inhibited RET phosphorylation and the downstream signaling pathway"}]}, {"smiles": "Cc1ccc(C(=O)Nc2ccc(CN3CCN(C)CC3)c(C(F)(F)F)c2)cc1C#Cc1cnc2cccnn12", "note": "[Ponatinib]", "values": [{"measurement": "relative tumor proliferation rate T/C", "setting": "[2]; SNU-16, 30 mg/kg orally once a day for 21 days, day 21", "result": 36.20, "unit": "%"}, {"measurement": "Relative tumor volume RTV (mean ± SD)", "setting": "[2]; d0", "result": "1.00 ± 0.00"}, {"measurement": "Relative tumor volume RTV (mean ± SD)", "setting": "[2]; d3", "result": "1.46 ± 0.30"}, {"measurement": "Relative tumor volume RTV (mean ± SD)", "setting": "[2]; d7", "result": "1.56 ± 0.52"}, {"measurement": "Relative tumor volume RTV (mean ± SD)", "setting": "[2]; d10", "result": "1.56 ± 0.22"}, {"measurement": "Relative tumor volume RTV (mean ± SD)", "setting": "[2]; d14", "result": "2.00 ± 0.38"}, {"measurement": "Relative tumor volume RTV (mean ± SD)", "setting": "[2]; d17", "result": "1.94 ± 0.47"}, {"measurement": "Relative tumor volume RTV (mean ± SD)", "setting": "[2]; d21", "result": "2.10 ± 0.34"}, {"measurement": "Weight (g, mean ± SD)", "setting": "[2]; d0", "result": "23.6 ± 2.5", "unit": "g"}, {"measurement": "Weight (g, mean ± SD)", "setting": "[2]; d3", "result": "24.2 ± 2.9", "unit": "g"}, {"measurement": "Weight (g, mean ± SD)", "setting": "[2]; d7", "result": "23.5 ± 2.8", "unit": "g"}, {"measurement": "Weight (g, mean ± SD)", "setting": "[2]; d10", "result": "23.7 ± 2.9", "unit": "g"}, {"measurement": "Weight (g, mean ± SD)", "setting": "[2]; d14", "result": "24.5 ± 2.8", "unit": "g"}, {"measurement": "Weight (g, mean ± SD)", "setting": "[2]; d17", "result": "24.1 ± 2.6", "unit": "g"}, {"measurement": "Weight (g, mean ± SD)", "setting": "[2]; d21", "result": "24.6 ± 3.1", "unit": "g"}, {"measurement": "F", "setting": "[3]; SD rats, PO (10 mg/kg) vs IV (2 mg/kg)", "result": 24.4, "unit": "%"}, {"measurement": "AUC0-t", "setting": "[3]; SD, rat, plasma, iv, 2 mg/kg", "result": 1410, "unit": "ng·h/mL"}, {"measurement": "Vd", "setting": "[3]; SD, rat, plasma, iv, 2 mg/kg", "result": 7.78, "unit": "L/kg"}, {"measurement": "clearance", "setting": "[3]; SD, rat, plasma, iv, 2 mg/kg", "result": 22.2, "unit": "mL/min/kg"}, {"measurement": "half-life", "setting": "[3]; SD, rat, plasma, iv, 2 mg/kg", "result": 4.24, "unit": "h"}, {"measurement": "AUC0-t", "setting": "[3]; SD, rat, plasma, po, 10 mg/kg", "result": 1600, "unit": "ng·h/mL"}, {"measurement": "Cmax", "setting": "[3]; SD, rat, plasma, po, 10 mg/kg", "result": 241, "unit": "ng/mL"}, {"measurement": "Tmax", "setting": "[3]; SD, rat, plasma, po, 10 mg/kg", "result": 2.33, "unit": "h"}, {"measurement": "half-life", "setting": "[3]; SD, rat, plasma, po, 10 mg/kg", "result": 8.29, "unit": "h"}, {"measurement": "10 nM inhibition ratio RET", "setting": "RET", "result": 87.5}, {"measurement": "10 nM inhibition ratio KDR", "setting": "KDR", "result": 85.3}, {"measurement": "10 nM inhibition ratio FGFR1", "setting": "FGFR1", "result": 79.5}, {"measurement": "inhibition of RET phosphorylation and downstream signaling pathway (Western blot, FIG. 1)", "setting": "[1]", "result": "inhibited RET phosphorylation and the downstream signaling pathway"}]}]}
